From patent US20050148661A1 (priority 2002, published 2005)

Tests used:
[1] = after a cumulative dose of 750-850 mg/m^2; cited from earlier work
sodium ion currents = test: current and voltage clamp on axon isolated from cockroaches (double oil separation technique); format: cell-based; conditions: applied externally; isolated cockroach axon
[2] = oxalate and ions in plasma and urine of patients treated with oxaliplatin
[3] = clinical cases 1 to 3: oxaliplatin cycles with or without calcium and magnesium infusion
calcium channels = test: electrophysiological study of the effect on calcium channels; format: cell-based, cockroaches
Experimental: An electrophysiological study was carried out in vitro by: • a) current and voltage clamp techniques on axon isolated from cockroaches with the double oil separation technique, • b) patch clamp techniques in whole cell configuration on DUM neurons (dorsal unpair median neuron) from cockroaches (DEA Laurence Gamelin, Etude de la neurotoxicité d'un dérivé du platine, l'oxaliplatine, par une approche électrophysiologique, Paris VII (1999)).
Indeed, BAPTA, a calcium chelator, gave an identical sodium channel inhibition curve. […] This blocking of the sodium channels causes abnormalities in the action potential of the neuron, that is to say neuronal depolarization disorders and potentially disturbances in the transmission of the impulse.

sodium channels = test: patch clamp in whole cell configuration on DUM neurons; format: cell-based, cockroaches
potassium ion currents = test: current and voltage clamp on axon isolated from cockroaches (double oil separation technique); format: cell-based; conditions: applied externally; isolated cockroach axon
[4] = cited from earlier work
[5] = clinical study: prevention of the neurotoxicity of oxaliplatin by calcium and magnesium infusion (103 treatments)
[6] = patients treated with oxaliplatin
[7] = case 3, C6, without calcium and magnesium
[8] = case 3, cycles C3, C4, C5, without calcium and magnesium

N[C@@H]1CCCC[C@H]1N.O=C([O-])C(=O)[O-].[Pt+2] (relative stereo) [oxaliplatin, 1,2-diamine cyclohexane (trans-1)oxalatoplatinum]
frequency of the grade 3 neuropathy [1]: 15-20% | modification in the sodium ion currents (sodium ion currents): no significant modification | oxalate in plasma (normally undetectable) [2, 6]: significant concentrations | plasma concentrations of calcium (total, ionized) and of magnesium (total and overall) [2, 6]: without any variation | calciuria, kaliuria and magnesuria ([2]; within 5 hours following the start of infusion): rise | urinary elimination of oxalate ([2]; within 5 hours following the start of infusion of oxaliplatin): substantial | distal and perioral paresthesia ([3]; case 2, cycle 1, 5-FU, folinic acid + oxaliplatin 130 mg/m^2/21 days, no calcium and magnesium): grade 3 | diarrhea ([3]; case 2, cycle 1, no calcium and magnesium): grade 3 | neuropathy, NCI [3, 7]: grade 3 | neuropathy, specific scale [3, 7]: 3 | duration of the incapacitating neuropathy ([3]; case 3, after C6, without calcium and magnesium): 18 months | distal, perioral paresthesia, NCI ([3]; case 3, cycles 1 and 2, 5-FU, folinic acid + oxaliplatin 130 mg/m^2/3 weeks without calcium and magnesium): grade 2 | distal, perioral paresthesia, specific scale ([3]; case 3, cycles 1 and 2, without calcium and magnesium): grade 1 | neuropathy, NCI [3, 8]: grade 2 | neuropathy, specific scale [3, 8]: 2 | effect on the calcium channels (calcium channels): no significant effect | amplitude of the action potential over time (sodium channels; current clamp, whole cell patch clamp, DUM neurons): reduction in the amplitude of the action potential over time | plateau of sodium current reduction (inhibition) (sodium channels; voltage clamp, DUM neurons): 60% | reduction in the sodium current (sodium channels; voltage clamp, over 10 minutes): 50% | modification in the potassium ion currents (potassium ion currents): no significant modification | share penetrating unchanged into the cell ([4]; FIG. 1): 70% | share of oxalate release / dichlorodachplatin formation carried out in the intracellular medium ([4]; first stage of metabolism): 70% | share of oxalate release / dichlorodachplatin formation carried out in the plasma medium ([4]; first stage of metabolism): 30% | total dose after which oxaliplatin can be reintroduced ([5]; after prolonged treatment, even with chronic persistent neuropathy, combined with infusion of calcium and magnesium): up to 780 mg/m^2 | patients with no neurological manifestation ([5]; cycle 6, in the absence of calcium and magnesium): 12% | discontinuations linked to progression of the disease ([5]; group of patients without calcium or magnesium): 44% | toxic causes for discontinuation: neuropathy ([5]; group without calcium and magnesium): 56%

O=C(O)CN(CC(=O)O)c1ccccc1OCCOc1ccccc1N(CC(=O)O)CC(=O)O [BAPTA]
sodium channel inhibition curve compared with oxaliplatin (sodium channels; calcium chelator tested): identical

NC1CCCCC1N.[Cl][Pt][Cl] (centres unmarked) [Dach platin, diaminecyclohexaneplatinum]
effect of other platinum salts (sodium channels) (sodium channels): no effect

[Ca] [calcium]
reduction of risk of neurological manifestations at a distance from oxaliplatin administration ([5]; calcium by the oral route): effective

N.N.O=C([O-])C1(C(=O)[O-])CCC1.[Pt+2] [carboplatin]
effect of other platinum salts (sodium channels) (sodium channels): no effect

N.N.[Cl][Pt][Cl] [cisplatin]
effect of other platinum salts (sodium channels) (sodium channels): no effect
